Data published in patent publication US20100317621A1, “BETA-LACTAMASE INHIBITORS” (priority 2007, published 2010).

Tests used:
SHV-5 β-lactamase = target: T1, SHV-5 β-lactamase (Klebsiella pneumoniae, UniProt P0A3M1); experiment: biochemical; type: biochemical, Escherichia coli; details: crude enzyme extract, 10 min preincubation at 37° C., nitrocefin 100 μM, PBS pH 7.0; read-out: SHV-5 IC50 Range
T1 construct: The β-lactamases were extracted by four cycles of freezing and thawing followed by centrifugation; endogenous in cells; host or cells: Escherichia coli cells containing SHV-5 (crude freeze-thaw extract)
Protocol: (§1) Isolation of β-lactamases. Crude β-lactamase extracts were prepared from 20 ml overnight cultures with shaking. Escherichia coli cells containing SHV-5 or CTXM-15 and Enterobacter cloacae cells containing P99 were further diluted 10-fold and grown to mid-log phase (OD at 600 nm, 0.5-0.8) in Mueller-Hinton II (MH-II) broth at 37° C. The cells were pelleted at 5000 g, washed and resuspended in 2 mL PBS pH 7.0. The β-lactamases were extracted by four cycles of freezing and thawing followed by centrifugation. β-lactamase activity in the extracts was measured with the chromogenic cephalosporin nitrocefin. The amount of protein in each β-lactamase preparation was determined by the bicinchoninic acid (BCA) assay.
(§2) β-lactamase Inhibition. To determine the level of inhibition of β-lactamase enzymes, compounds were diluted in PBS at pH 7.0 to yield concentrations between 100 and 0.005 μM in microtiter plates. An equal volume of diluted enzyme stock was added, and the plates were incubated at 37° C. for 10 min. Nitrocefin solution was then dispensed as substrate into each well at a final concentration of 100 μM, and the plates were immediately read with the kinetic program at 486 nm for 10 min on the SPECTRAMAX® Plus^384 (high-throughput microplate spectrophotometer; Molecular Devices Corp., Sunnyvale, Calif.). Maximum rates of metabolism were then compared to those in control wells (without inhibitors), and percentages of enzyme inhibition were calculated for each concentration of inhibitor. The concentration of inhibitor needed to reduce the initial rate of hydrolysis of substrate by 50% (IC50) was calculated as the residual activity of β-lactamase at 486 nm using the SoftMax Pro 5.0 software (Molecular Devices Corp.).

CTXM-15 β-lactamase = target: T2, CTXM-15 β-lactamase (Escherichia coli, UniProt Q9EXV5); experiment: biochemical; type: biochemical; details: crude enzyme extract, 10 min preincubation at 37° C., nitrocefin 100 μM, PBS pH 7.0; read-out: CTXM-15 IC50 Range
T2 construct: The β-lactamases were extracted by four cycles of freezing and thawing followed by centrifugation; endogenous in cells; host or cells: Escherichia coli cells containing CTXM-15 (crude freeze-thaw extract)
Protocol: as §1, §2

P99 AmpC β-lactamase = target: T3, P99 AmpC β-lactamase (Enterobacter cloacae, UniProt P05364); experiment: biochemical; type: biochemical; details: crude enzyme extract, 10 min preincubation at 37° C., nitrocefin 100 μM, PBS pH 7.0; read-out: P99 AmpC IC50 Range
T3 construct: The β-lactamases were extracted by four cycles of freezing and thawing followed by centrifugation; endogenous in cells; host or cells: Enterobacter cloacae cells containing P99 (crude freeze-thaw extract)
Protocol: as §1, §2

[1] = test system: E. cloacae expressing the Class C P99+; type: cell-based; details: in the presence of fixed 8 μg/mL ceftazidime; CAMHB, 16-20 hours at 37° C.
Text: (§3) To determine the ability of test compounds to potentiate the inhibition of the growth of bacterial strains producing beta-lactamase enzymes, classic cell based screening assays were employed. Four bacteria strains producing beta-lactamase enzymes were used: E. coli expressing the Class A Extended Spectrum Beta-Lactamase (ESBL) CTX-M-15, E. coli expressing the Class A ESBL SHV-5, E. cloacae expressing the Class C P99+, and K. pneumoniae expressing the Class A carbapenemase KPC-2. In order to evaluate the ability of test compounds to inhibit beta-lactamase activity, Applicants used a modification of the broth microdilution assay. The assay was conducted in Cation Adjusted Mueller Hinton Broth (CAMHB, BD #212322, BD Diagnostic Systems, Sparks, Md.). Bacteria strains were grown for 3-5 hours in CAMBH broth. All four strains were grown in presence of 50 μg/mL ampicillin to ensure resistance is maintained. In the meantime, test compounds were diluted in DMSO to a 0.1 mg/mL stock. The compounds were added to a microtiter plate and were diluted in 2-fold serial dilutions in CAMHB in a final concentration range of 32 μg/mL to 0.25 μg/mL. An overlay of CAMHB containing a cephalosporin was added to the compounds at a final static concentration of 8 μg/mL. […] Each of these compound plates are made in quadruplicate, one for each bacteria strain. In addition to the titration of test compounds the MICs of a panel of cephalosporins is also tested to ensure the strains are behaving consistently from test to test. Once the test compound and cephalosporin are added the plates can be inoculated. Inocula are conducted according to CLSI broth microdilution method. After inoculation the plates are incubated for 16-20 hours at 37° C. then the Minimal Inhibitory Concentration (MIC) of the test compound is determined visually.
(§4) Using the methodology described above, examples of the current invention were evaluated for their ability to inhibit the growth of β-lactamase producing bacteria in the presence of a β-lactam antibiotic.

[2] = test system: E. coli expressing the Class A ESBL CTX-M-15; type: cell-based; details: in the presence of fixed 8 μg/mL cefotaxime; CAMHB, 16-20 hours at 37° C.
Text: as §3, §4

[3] = test system: E. coli expressing the Class A ESBL SHV-5; type: cell-based; details: in the presence of fixed 8 μg/mL ceftazidime; CAMHB, 16-20 hours at 37° C.
Text: as §3, §4

[4] = test system: K. pneumoniae expressing the Class A carbapenemase KPC-2; type: cell-based; details: in the presence of fixed 8 μg/mL ceftazidime; CAMHB, 16-20 hours at 37° C.
Text: as §3, §4

T2 sequence (Q9EXV5 29-291): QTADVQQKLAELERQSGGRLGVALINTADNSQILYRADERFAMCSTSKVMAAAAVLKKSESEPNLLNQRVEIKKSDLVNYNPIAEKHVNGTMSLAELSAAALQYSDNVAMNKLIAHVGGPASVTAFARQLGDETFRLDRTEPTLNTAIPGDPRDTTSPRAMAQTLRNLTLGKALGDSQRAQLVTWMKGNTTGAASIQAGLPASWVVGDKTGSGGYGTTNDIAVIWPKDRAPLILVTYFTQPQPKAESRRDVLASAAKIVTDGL
T3 sequence (P05364 21-381): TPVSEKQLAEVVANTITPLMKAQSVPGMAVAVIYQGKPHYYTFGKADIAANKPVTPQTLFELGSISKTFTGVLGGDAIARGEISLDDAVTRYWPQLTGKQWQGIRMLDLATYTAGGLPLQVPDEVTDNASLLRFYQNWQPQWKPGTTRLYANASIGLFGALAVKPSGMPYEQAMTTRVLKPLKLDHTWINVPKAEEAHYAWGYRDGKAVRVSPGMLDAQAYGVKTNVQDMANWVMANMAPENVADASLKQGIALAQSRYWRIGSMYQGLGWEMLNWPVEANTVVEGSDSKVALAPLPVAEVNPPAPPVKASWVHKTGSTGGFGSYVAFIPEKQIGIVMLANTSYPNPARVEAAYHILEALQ
T1 sequence (P0A3M1 22-286): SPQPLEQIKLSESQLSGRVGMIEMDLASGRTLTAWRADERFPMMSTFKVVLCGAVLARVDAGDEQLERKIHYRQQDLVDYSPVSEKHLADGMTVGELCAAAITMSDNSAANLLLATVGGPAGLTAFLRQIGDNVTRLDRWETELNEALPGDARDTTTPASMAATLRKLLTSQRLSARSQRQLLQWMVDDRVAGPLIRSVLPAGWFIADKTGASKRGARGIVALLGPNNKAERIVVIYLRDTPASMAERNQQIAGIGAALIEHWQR

| Compound | IC50 (SHV-5 β-lactamase) [nM] | IC50 (CTXM-15 β-lactamase) [nM] | IC50 (P99 AmpC β-lactamase) [nM] | MIC of example compound, E. cloacae P99+ + 8 μg/mL CAZ [1] | MIC of example compound, E. coli CTXM-15 + 8 μg/mL TAX [2] | MIC of example compound, E. coli SHV-5 + 8 μg/mL CAZ [3] | MIC of example compound, K. pneumoniae KPC-2 + 8 μg/mL CAZ [4] |
| --- | --- | --- | --- | --- | --- | --- | --- |
| O=C(Cc1cccs1)N[C@@H](Cc1cccc(C(=O)O)c1)B(O)O [Example 1, (1R)-1-(2-thiophene-2-yl-acetylamino)-2-(3-carboxyphenyl)ethyl-1-boronic acid] | < 100 | < 100 | 100 to 1000 | B (B represents an MIC between 2 and 32 μg/mL) | B (B represents an MIC between 2 and 32 μg/mL) | B (B represents an MIC between 2 and 32 μg/mL) | C (C represents an MIC of <2 μg/mL) |
| COc1cccc(CC(=O)N[C@@H](Cc2cccc(C(=O)O)c2)B(O)O)c1 [Example 2, (1R)-1-(3-Methoxyphenylacetylamino)-2-(3-carboxyphenyl)ethyl-1-boronic acid] | < 100 | < 100 | 100 to 1000 | A (A represents an MIC>32 μg/mL) | B (B represents an MIC between 2 and 32 μg/mL) | B (B represents an MIC between 2 and 32 μg/mL) | B (B represents an MIC between 2 and 32 μg/mL) |
| COc1ccc(CC(=O)N[C@@H](Cc2cccc(C(=O)O)c2)B(O)O)cc1OC [Example 11, (1R)-1-(3,4-Dimethoxyphenylacetylamino)-2-(3-carboxyphenyl)ethyl-1-boronic acid] | < 100 | < 100 | 100 to 1000 | B (B represents an MIC between 2 and 32 μg/mL) | B (B represents an MIC between 2 and 32 μg/mL) | B (B represents an MIC between 2 and 32 μg/mL) | A (A represents an MIC>32 μg/mL) |
| O=C(CCC(=O)c1cccs1)N[C@@H](Cc1cccc(C(=O)O)c1)B(O)O [Example 12, (1R)-1-(4-Oxo-4-thiophen-2-yl-butyrylamino)-2-(3-carboxyphenyl)ethyl-1-boronic acid] | 100 to 1000 | 100 to 1000 | < 100 | B (B represents an MIC between 2 and 32 μg/mL) | B (B represents an MIC between 2 and 32 μg/mL) | B (B represents an MIC between 2 and 32 μg/mL) | B (B represents an MIC between 2 and 32 μg/mL) |
| O=C(Cc1cccs1)N[C@@H](Cc1ccc(F)c(C(=O)O)c1)B(O)O [Example 21, (1R)-1-(2-thiophene-2-yl-acetylamino)-2-(3-carboxy-4-fluorophenyl)ethyl-1-boronic acid] | < 100 | < 100 | 100 to 1000 | B (B represents an MIC between 2 and 32 μg/mL) | C (C represents an MIC of <2 μg/mL) | C (C represents an MIC of <2 μg/mL) | B (B represents an MIC between 2 and 32 μg/mL) |
| O=C(Cc1cccc(O)c1)N[C@@H](Cc1cccc(C(=O)O)c1)B(O)O [Example 22, (1R)-1-(3-Hydroxyphenylacetylamino)-2-(3-carboxyphenyl)ethyl-1-boronic acid] | < 100 | < 100 | 100 to 1000 | B (B represents an MIC between 2 and 32 μg/mL) | B (B represents an MIC between 2 and 32 μg/mL) | C (C represents an MIC of <2 μg/mL) | B (B represents an MIC between 2 and 32 μg/mL) |
| O=C(Cc1ccsc1)N[C@@H](Cc1cccc(C(=O)O)c1)B(O)O [Example 29, (1R)-1-(2-thiophene-3-yl-acetylamino)-2-(3-carboxyphenyl)ethyl-1-boronic acid] | < 100 | 100 to 1000 | 100 to 1000 | A (A represents an MIC>32 μg/mL) | C (C represents an MIC of <2 μg/mL) | 8 µg/mL | B (B represents an MIC between 2 and 32 μg/mL) |
| NCCOc1cccc(CC(=O)N[C@@H](Cc2cccc(C(=O)O)c2)B(O)O)c1 [Example 30, (1R)-1-{2-[3-(2-Amino-ethoxy)-phenyl]-acetylamino}-2-(3-carboxyphenyl)ethyl-1-boronic acid] | 100 to 1000 | < 100 | 100 to 1000 | B (B represents an MIC between 2 and 32 μg/mL) | B (B represents an MIC between 2 and 32 μg/mL) | B (B represents an MIC between 2 and 32 μg/mL) | B (B represents an MIC between 2 and 32 μg/mL) |
| NC(=O)COc1cccc(CC(=O)N[C@@H](Cc2cccc(C(=O)O)c2)B(O)O)c1 [Example 33, (1R)-1-[2-(3-Carbamoylmethoxy-phenyl)-acetylamino}-2-(3-carboxyphenyl)ethyl-1-boronic acid] | < 100 | < 100 | 100 to 1000 | B (B represents an MIC between 2 and 32 μg/mL) | B (B represents an MIC between 2 and 32 μg/mL) | B (B represents an MIC between 2 and 32 μg/mL) |  |
| O=C(Cc1ccc(O)cc1)N[C@@H](Cc1cccc(C(=O)O)c1)B(O)O [Example 34, (1R)-1-(4-Hydroxyphenylacetylamino)-2-(3-carboxyphenyl)ethyl-1-boronic acid] | < 100 | 100 to 1000 | < 100 | B (B represents an MIC between 2 and 32 μg/mL) | B (B represents an MIC between 2 and 32 μg/mL) | B (B represents an MIC between 2 and 32 μg/mL) |  |
| O=C(CCC(=O)C1CC1)N[C@@H](Cc1cccc(C(=O)O)c1)B(O)O [Example 36, (1R)-1-(4-Cyclopropyl-4-oxo-butyrylamino)-2-(3-carboxyphenyl)ethyl-1-boronic acid] | > 1000 |  | > 1000 | B (B represents an MIC between 2 and 32 μg/mL) | B (B represents an MIC between 2 and 32 μg/mL) | B (B represents an MIC between 2 and 32 μg/mL) |  |
